ChEMBL document CHEMBL1201862, “PubChem BioAssay data set” (2004)
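96-well plates; 48 h exposure; 5 concentrations. Endpoints by linear interpolation between flanking doses. Not reached: highest tested concentration assigned. At the GI50, growth is halved.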 Active and inactive are the calls of the source. Cut-off read from the data, not from the text of the source: active = GI50 up to about 1.1 µM and inactive = higher.

What was measured:
Assay in all cases: NCI-60 cell line screen, 48 h
OVCAR-3 = test system: OVCAR-3
M14 = test system: M14
UO-31 = test system: UO-31
NCI/ADR-RES = test system: NCI/ADR-RES
OVCAR-8 = test system: OVCAR-8
SN12C = test system: SN12C
CCRF-CEM = test system: CCRF-CEM
Hs-578T = test system: Hs-578T
HT-29 = test system: HT-29
A498 = test system: A498
HCC 2998 = test system: HCC 2998
K562 = test system: K562
U-251 = test system: U-251
TK-10 = test system: TK-10
NCI-H522 = test system: NCI-H522
HOP-92 = test system: HOP-92
Malme-3M = test system: Malme-3M
UACC-257 = test system: UACC-257
NCI-H226 = test system: NCI-H226
MDA-N = test system: MDA-N

Row | Structure (SMILES) | GI50 (OVCAR-3) | GI50 (M14) | GI50 (UO-31) | GI50 (NCI/ADR-RES) | GI50 (OVCAR-8) | GI50 (SN12C) | GI50 (CCRF-CEM) | GI50 (Hs-578T) | GI50 (HT-29) | GI50 (A498) | GI50 (HCC 2998) | GI50 (K562) | GI50 (U-251) | GI50 (TK-10) | GI50 (NCI-H522) | GI50 (HOP-92) | GI50 (Malme-3M) | GI50 (UACC-257) | GI50 (NCI-H226) | GI50 (MDA-N)
1 | CCCCCCCCCCCCC1NC(=N)NC2(CCCO2)C1C(=O)OC (stereo not drawn) | 3.52 µM (inactive) | 3.33 µM (inactive) | 15.3 µM (inactive) | 17.6 µM (inactive) | 4.68 µM (inactive) | 8.02 µM (inactive) | 2.06 µM (inactive) | 2.72 µM (inactive) | 1.92 µM (inactive) | 23.3 µM (inactive) | 6.37 µM (inactive) | 1.91 µM (inactive) | 1.64 µM (inactive) | 4.79 µM (inactive) | 3.45 µM (inactive) | 5.09 µM (inactive) | 2.23 µM (inactive) | 4.3 µM (inactive) | 14.6 µM (inactive) | 
2 | CC1CCC(=O)C(C(=O)CC2CC(=O)N(C)C(=O)C2)C1 (stereo not drawn) | > 100 µM (inactive) | > 100 µM (inactive) | > 100 µM (inactive) | > 100 µM (inactive) | > 100 µM (inactive) | > 100 µM (inactive) | > 100 µM (inactive) | > 100 µM (inactive) | > 100 µM (inactive) | > 100 µM (inactive) | > 100 µM (inactive) | > 100 µM (inactive) | > 100 µM (inactive) | > 100 µM (inactive) | > 100 µM (inactive) | > 100 µM (inactive) | > 100 µM (inactive) | > 100 µM (inactive) | > 100 µM (inactive) | 
3 | COC(=O)/C(=N/NC(N)=O)C(C(=O)OC)C(=O)C(=O)Nc1ccc(Cl)cc1 (stereo not drawn) | > 100 µM (inactive) | > 100 µM (inactive) | > 100 µM (inactive) |  | > 100 µM (inactive) | > 100 µM (inactive) | > 50.1 µM (inactive) |  | > 100 µM (inactive) | > 100 µM (inactive) | > 100 µM (inactive) | > 43.6 µM (inactive) | > 100 µM (inactive) | > 100 µM (inactive) | > 100 µM (inactive) | > 100 µM (inactive) | > 100 µM (inactive) | > 100 µM (inactive) | > 100 µM (inactive) | 
4 | CC1(C)[C@@H]2C[C@H]1C(Cc1ccc(C[C@H]3c4cc(-c5ccccn5)ncc4[C@H]4C[C@@H]3C4(C)C)cc1)c1cc(-c3ccccn3)ncc12 (stereo partly drawn) | 0.679 µM (active) | 1.16 µM (inactive) | 0.931 µM (active) | 2.71 µM (inactive) | 0.678 µM (active) | 0.902 µM (active) | 0.619 µM (active) | > 100 µM (inactive) | 1.44 µM (inactive) | 2.36 µM (inactive) | 1.74 µM (inactive) | 0.649 µM (active) | 1.01 µM (active) | 0.841 µM (active) | 7.14 µM (inactive) |  | 4.53 µM (inactive) | 2.63 µM (inactive) |  | 
5 | Oc1cc(-c2ccc3ccccc3c2)nc2ncccc12 |  | 7.13 µM (inactive) | 18.1 µM (inactive) | 4.4 µM (inactive) | 23 µM (inactive) | 23.6 µM (inactive) | 7.64 µM (inactive) | 9.35 µM (inactive) | 4.16 µM (inactive) | 7.23 µM (inactive) | 9.4 µM (inactive) | 2.7 µM (inactive) |  | 19.8 µM (inactive) | 4.02 µM (inactive) | 8.34 µM (inactive) | 13.1 µM (inactive) | 12.4 µM (inactive) | 23 µM (inactive) | 
6 | CCC/C=C1\CCC(CN(C)C)C1=O (stereo not drawn) | 5.47 µM (inactive) | 6.52 µM (inactive) | 12.4 µM (inactive) |  | 10.2 µM (inactive) | 16.9 µM (inactive) | 1.09 µM (active) |  | 8.11 µM (inactive) | 0.455 µM (active) | 15.8 µM (inactive) | 2.15 µM (inactive) | 5.81 µM (inactive) | 5.41 µM (inactive) | 1.93 µM (inactive) | 3.04 µM (inactive) | 1.77 µM (inactive) | 15 µM (inactive) | 19 µM (inactive) | 
7 | Nc1ncnc2c1ncn2C1CC(OC2CCCCO2)C(CO)O1 (stereo not drawn) | > 100 µM (inactive) | > 100 µM (inactive) | > 100 µM (inactive) |  | > 100 µM (inactive) | > 100 µM (inactive) | > 100 µM (inactive) |  | > 100 µM (inactive) | > 100 µM (inactive) | > 100 µM (inactive) | > 100 µM (inactive) | > 100 µM (inactive) | > 100 µM (inactive) | > 100 µM (inactive) | > 100 µM (inactive) | > 100 µM (inactive) | > 100 µM (inactive) | > 100 µM (inactive) | 
8 | CSc1nc2c(ncn2C2OCC(O)C(O)C2O)c(=O)[nH]1 (stereo not drawn) | > 100 µM (inactive) |  | > 100 µM (inactive) | > 100 µM (inactive) | > 100 µM (inactive) | > 100 µM (inactive) | > 100 µM (inactive) |  | > 100 µM (inactive) | > 100 µM (inactive) | > 100 µM (inactive) | > 100 µM (inactive) | > 100 µM (inactive) |  | > 100 µM (inactive) | > 100 µM (inactive) | > 100 µM (inactive) | > 100 µM (inactive) | > 100 µM (inactive) | 
9 | C/C=C1/C(=O)O[C@]23C=C[C@@H]4C(C(=O)OC)=CO[C@H](O[C@@H]12)[C@@H]43 [PLUMERICIN] | 0.861 µM (active) |  | 3.12 µM (inactive) | 0.676 µM (active) | 0.594 µM (active) | 1.98 µM (inactive) | 0.341 µM (active) |  | 2.18 µM (inactive) | 0.838 µM (active) | 2.68 µM (inactive) | 0.652 µM (active) | 2.7 µM (inactive) |  | 0.353 µM (active) | 1.61 µM (inactive) | 1.93 µM (inactive) | 0.592 µM (active) | 2.44 µM (inactive) | 
10 | CN[C@@H](C)[C@H](N)c1ccccc1 | > 100 µM (inactive) | > 100 µM (inactive) | > 100 µM (inactive) |  | > 100 µM (inactive) | > 100 µM (inactive) | > 100 µM (inactive) |  | > 100 µM (inactive) | > 100 µM (inactive) | > 100 µM (inactive) | > 100 µM (inactive) | > 100 µM (inactive) | > 100 µM (inactive) | > 100 µM (inactive) | > 100 µM (inactive) |  | > 100 µM (inactive) | > 100 µM (inactive) | 
11 | O=C(CN1C(=O)CC(c2ccccc2)(c2ccccc2)C1=O)N1CCN(CCO)CC1 | > 100 µM (inactive) | > 100 µM (inactive) | > 100 µM (inactive) | > 100 µM (inactive) | > 100 µM (inactive) | > 100 µM (inactive) | > 100 µM (inactive) | > 100 µM (inactive) | > 100 µM (inactive) | > 100 µM (inactive) | > 100 µM (inactive) | > 100 µM (inactive) | > 100 µM (inactive) | > 100 µM (inactive) | > 100 µM (inactive) | > 100 µM (inactive) |  | > 100 µM (inactive) |  | 
12 | NC(=O)CN1C=CCC(C(N)=O)=C1 [CARICOTAMIDE] | > 100 µM (inactive) | > 100 µM (inactive) | > 100 µM (inactive) | > 100 µM (inactive) | > 100 µM (inactive) | > 100 µM (inactive) | > 100 µM (inactive) |  | > 100 µM (inactive) | > 100 µM (inactive) | > 100 µM (inactive) | > 100 µM (inactive) | > 100 µM (inactive) |  | > 100 µM (inactive) | > 100 µM (inactive) | > 100 µM (inactive) | > 100 µM (inactive) | > 100 µM (inactive) | > 100 µM (inactive)
13 | Cc1nc(C(N)=S)sc1C(=O)CC(=O)C(=O)Nc1c(C(C)C)cccc1C(C)C | 18.3 µM (inactive) | 35.2 µM (inactive) | 39.3 µM (inactive) |  | 36 µM (inactive) | 56.8 µM (inactive) | 44.7 µM (inactive) |  | 37.3 µM (inactive) | 71 µM (inactive) | 43.3 µM (inactive) | 24.3 µM (inactive) | 36.6 µM (inactive) | > 100 µM (inactive) | 18 µM (inactive) | 26.9 µM (inactive) | 39.2 µM (inactive) | 60.4 µM (inactive) | 41.4 µM (inactive) | 
14 | CC(=O)NC1=C(C)C(=O)c2c(nc3n2CCC3O)C1=N (stereo not drawn) | 2.98 µM (inactive) |  | 22.9 µM (inactive) |  | 4.55 µM (inactive) | 6.19 µM (inactive) | 2.93 µM (inactive) |  | 17.6 µM (inactive) | 27.2 µM (inactive) | 21.3 µM (inactive) | 8.67 µM (inactive) | 13.2 µM (inactive) | 29.9 µM (inactive) | 6.75 µM (inactive) | 4.36 µM (inactive) | 6.41 µM (inactive) | 3.9 µM (inactive) | 17.4 µM (inactive) | 
15 | N#CC(C(=O)CCC(=O)Nc1cccc(C(F)(F)F)c1)c1ccccc1 (stereo not drawn) | > 100 µM (inactive) | > 100 µM (inactive) | > 100 µM (inactive) |  | > 100 µM (inactive) | > 100 µM (inactive) | > 100 µM (inactive) |  | > 100 µM (inactive) | > 100 µM (inactive) | > 100 µM (inactive) | > 100 µM (inactive) | > 100 µM (inactive) | > 100 µM (inactive) | > 100 µM (inactive) | > 100 µM (inactive) | > 100 µM (inactive) | > 100 µM (inactive) | > 100 µM (inactive) | 
16 | CCN(CC)C(=O)Cc1[nH][nH]c(=O)c1C(=O)N(CC)CC | > 100 µM (inactive) | > 100 µM (inactive) | > 100 µM (inactive) |  | > 100 µM (inactive) | > 100 µM (inactive) | > 100 µM (inactive) |  | > 100 µM (inactive) | > 100 µM (inactive) | > 100 µM (inactive) | > 100 µM (inactive) | > 100 µM (inactive) | > 100 µM (inactive) | > 100 µM (inactive) | > 100 µM (inactive) | > 100 µM (inactive) | > 100 µM (inactive) | > 100 µM (inactive) | 
